Results from patent US10058688B2 (Massachusetts Institute of Technology, priority 2012, dated 2018).
Where two headings read alike, the source gives them in different places.

Columns and labels:
[1] = test system: OVCAR-3 ovarian tumor cell line; settings: cited from earlier work
[2] = DrugBank, DB01229; cited from earlier work
SKOV3 cells [3] = test: In vitro cytotoxicity study; type: cell-based, human; settings: 0.1 μg/mL over a period of 7 days, FIG. 5
Description: RPMI 1640 with 20% fetal bovine serum (FBS) was used for culturing A2780 and OVCAR3, and McCoy's 5a cell growth media with 10% FBS was used for SKOV3 propagation. The cells were seeded in 96-well plates at 10^4 cells/well. […] The percentage cell viability was calculated as a percentage of the untreated group at each time point.

[4] = test system: SKOV3 luciferase-positive cells; test: Treatment efficacy study; type: in vivo, nu/nu mice
Source text: The nu/nu mice were inoculated with tumor cells on Day 0 and treatment was started on Day 14. […] The devices were sterilized with ethylene oxide prior to implantation. All animal care guidelines as listed in the animal protocol were followed. The animals were imaged 2 times a week, similar to the tumor induction study. The animals in the toxicity study were sacrificed on day 56 and their organs (kidney, liver, spleen, intestines and bone) were removed immediately upon euthanasia to be fixed in 10% formalin overnight.

ovarian cancer = settings: cited from earlier work
SKOV3 cells [5] = settings: for 2 hours; Royer et al.; used as positive control; cited from earlier work

SMILES	median survival ([1]; 10 mg/kg dose)	median survival ([1]; 40 mg/kg)	log P [2]	killing of tumor cells at 0.1 μg/mL (SKOV3 cells [3])	tumor size ([4]; IP bolus injection (10 mg/kg), 1 dose per week)	tumor mass ([4]; device or IP bolus 5 mg/kg 1x/wk from Day 14, vs untreated, FIG. 8)	subjects who completed all cycles of therapy (ovarian cancer; IP therapy)	overall survival (ovarian cancer; IP treatment, p=0.03)	subjects who completed all cycles of therapy (ovarian cancer; IV therapy)	overall survival (ovarian cancer; IV treatment)	critical condition to kill ovarian tumor cells (concentration) (SKOV3 cells [5])
CC(=O)O[C@H]1C(=O)[C@@]2(C)[C@H]([C@H](OC(=O)c3ccccc3)[C@]3(O)C[C@H](OC(=O)[C@H](O)[C@@H](NC(=O)c4ccccc4)c4ccccc4)C(C)=C1C3(C)C)[C@]1(OC(C)=O)CO[C@@H]1C[C@@H]2O [paclitaxel]	60 days	about 70 days	about 3.5	–	–	–	–	–	–	–	–
N.N.[Cl][Pt][Cl] [cisplatin]	–	–	–	too low to kill tumor cells	remained relatively small	significant tumor mass reduction	42%	65.6 months	83%	49.7 months	10 µg/mL
